Test results taken from ChEMBL document CHEMBL3507680, “University of Dundee, Gates Library screen for HepG2 cell viability”.

Test: Human HepG2 cell viability assay in 384 well format
Type: toxicity, cell-based
Parameters: dose 125 nL, time 70.5 hour; cytotoxicity at 70.5 h: concentration not given beside the values
Conditions: HepG2 cells, read-out: Inhibition

Row | SMILES | cytotoxicity at 70.5 h [%]
1 | CC(NC(=O)N(C)CCCOc1ccccc1)c1nncn1C (configuration not stated) | -5.85
2 | COc1ncccc1CNC(=O)NCCNS(C)(=O)=O | -2.56
3 | CC(NC(=O)N(C)CCOc1ccccc1F)c1nncn1C (configuration not stated) | -4.64
4 | Cc1ccccc1OCCN(C)C(=O)NC(C)c1nncn1C (configuration not stated) | -6.52
5 | CCOc1ccc(C(=O)N2CCCS2(=O)=O)cc1OC | -4.2
6 | Cc1cccc(N2CCN(C(=O)NC(C)c3nncn3C)CC2)c1C (configuration not stated) | -3.82
7 | CC(NC(=O)N1CCN(c2ccccc2O)CC1)c1nncn1C (configuration not stated) | 1.59
8 | CCN1CCN(c2ccc(CNC(=O)c3ccccc3F)cn2)CC1 | -0.777
9 | Cc1ccc(C)c(S(=O)(=O)CCN2CCc3c(ncn3C)C2)c1 | 16
10 | CCCC(=O)N(C)CC(=O)Nc1ccc(Br)cn1 | -2.34
11 | c1cnn(CC2CCCCN2Cc2nc(-c3ccsc3)no2)c1 (configuration not stated) | -4.27
12 | CCc1nc(C2CCCN2C(=O)c2cnc[nH]2)no1 (configuration not stated) | -7.25
13 | Cc1cc(NC(=O)CN(CC2CCOC2)C2CC2)no1 (configuration not stated) | 0.647
14 | CCc1nc(C2CCCN2C(=O)c2ccc(N3CCCC3)nn2)no1 (configuration not stated) | -3.36
15 | CC(C)c1noc(C(C)N2CCN(Cc3nnc(C4CC4)o3)CC2)n1 (configuration not stated) | -3.65
16 | Cc1nc(C2CCCN(C(=O)COCc3ccccc3)C2)no1 (configuration not stated) | -12.6
17 | Cc1nc(C)n(CC2CN(CCCOc3ccc(F)cc3)CCO2)n1 (configuration not stated) | -17.9
18 | CS(=O)(=O)c1cccc(C(=O)NCCCN2CCc3ccccc3C2)c1 | 19.1
19 | Cc1nc(C)n(CC2CN(CCOc3cccc(F)c3)CCO2)n1 (configuration not stated) | -9.64
20 | C1CN(Cc2noc(C3CC3)n2)CCN(Cc2nnc(C3CC3)o2)C1 | 15.4
21 | CC(Cn1cccn1)NC(=O)CCC(=O)c1cccs1 (configuration not stated) | -11.2
22 | Cn1ccc(C(=O)NCc2ccc(N3CCCCCC3)nc2)cc1=O | -12.5
23 | O=C(NCCCN1CCc2ccccc2C1)c1ccccc1Br | -7.72
24 | CCC(C#N)NC(=O)c1cc(Br)c2c(c1)OCCO2 (configuration not stated) | -9.18

Row | SMILES | cytotoxicity at 70.5 h [%]
25 | CNc1snc(C)c1C(=O)N1CCCC(n2ccnc2C)C1 (configuration not stated) | -4.48
26 | OC(CNCCn1cccn1)c1ccc(Br)cc1 (configuration not stated) | 15.8
27 | Cc1cn2c(n1)CCC(NC(=O)c1cc(C3CC3)[nH]n1)C2 (configuration not stated) | -4.74
28 | Cc1nc(C2CCCN2Cc2cc(=O)n(C)c(=O)n2C)no1 (configuration not stated) | -1.72
29 | Cc1nccc(C(=O)N2CCCC2c2c(C)nn(C)c2C)n1 (configuration not stated) | 16.2
30 | Cc1cccc(-c2nc(CN3CCCC3Cn3cc(C)cn3)no2)c1 (configuration not stated) | 6.59
31 | Cc1cnn(CC2CCCN2Cc2noc(C)n2)c1 (configuration not stated) | -9.78
32 | CN(C)CC1CN(Cc2coc(-c3cccc(F)c3)n2)CCO1 (configuration not stated) | 3.34
33 | COC(=O)CC(NC(=O)c1ccccc1OC)c1cccs1 (configuration not stated) | 5.97
34 | COc1ccc(Cl)cc1C(=O)NC(CC(=O)O)c1cccs1 (configuration not stated) | -11
35 | COc1ccc(Br)c(C(=O)NC(CC(=O)O)c2cccs2)c1 (configuration not stated) | -11.5
36 | Cc1ccc(C(=O)NCc2ccc(N3CCCC(C(N)=O)C3)cc2)o1 (configuration not stated) | -14.6
37 | CCOc1ccccc1C(=O)NC(CC(=O)O)c1cccs1 (configuration not stated) | -6.28
38 | COc1ccc(C)cc1C(=O)NC(CC(=O)O)c1cccs1 (configuration not stated) | -11.4
39 | Cc1cnn(C2CCCN(C(=O)c3cc(Cl)c4c(c3)OCO4)C2)c1 (configuration not stated) | 7.73
40 | O=C(c1ccc2c(c1)OCCCO2)N1CCCC(n2ccnc2)C1 (configuration not stated) | -8.38
41 | CN(C)CC1CN(Cc2coc(-c3ccc(Cl)cc3)n2)CCO1 (configuration not stated) | 12.9
42 | COc1cc(C(=O)NC(CC(=O)O)c2cccs2)cc(OC)c1C (configuration not stated) | -6.87
43 | COCCc1noc(CN2CCCC2c2c(C)nn(C)c2OC)n1 (configuration not stated) | -3.49
44 | CCn1cnnc1CNC(=O)N1CCC(O)CC1 | -5.8
45 | Cn1ccnc1CN1CCCN(C(=O)COCC2CC2)CC1 | -3.74
46 | O=C(CN1CCN(C(=O)c2sccc2C2CC2)CC1)NC1CC1 | 8.72
47 | Cc1nc(C)n(CC2CCCN2Cc2nc3ccccc3o2)n1 (configuration not stated) | -5.98
48 | CC(OCC1CC1)C(=O)N1CCCN(Cc2nccn2C(C)C)CC1 (configuration not stated) | -5.25

Row | SMILES | cytotoxicity at 70.5 h [%]
49 | Cn1ccnc1CN1CCCN(C(=O)CC(C2CC2)C2CC2)CC1 | 0.914
50 | Cc1cnn(CC2CCCN2CC(=O)NC2CCN(C3CC3)CC2)c1 (configuration not stated) | -3.72
51 | CC(C)(C)n1cc(C(=O)N2CCN(Cc3ccsc3)CC2)cn1 | -0.132
52 | CC(C)c1ccc(OCCC(=O)N2CCC(CC(N)=O)CC2)cc1 | -3.31
53 | CC1CN(C(=O)NCCCn2cncn2)CCO1 (configuration not stated) | -1.85
54 | CCc1nnc2n1CCN(CC(=O)Nc1cc(C(C)(C)C)nn1C)C2 | 0.0813
55 | O=C(Nc1cnn(CCN2CCOCC2)c1)c1cc(F)ccc1F | -2.44
56 | Cc1nn(CC(=O)N2CCC(Nc3cccnn3)CC2)c(C)c1Cl | 28.5
57 | CS(=O)(=O)N1CCCCCC1C1CCN(c2ncccn2)CC1 (configuration not stated) | 15.3
58 | Cc1cnn(CCNCc2csc(-c3cccs3)n2)c1 | -4.79
59 | Cc1nn(C)c(C)c1CC(=O)N1CCC(Nc2cccnn2)CC1 | 35.9
60 | CCCSCC(=O)NS(=O)(=O)c1ccc2c(c1)OCCO2 | 2.12
61 | O=C(CSc1ccccc1Cl)NS(=O)(=O)c1ccc2c(c1)OCCO2 | -4.84
62 | CCn1c(CN2CCC(O)(C(=O)OC)CC2)nc2c(F)cccc21 | 31.2
63 | OC(CN1CCCCCCC1)c1ccc(F)cc1 (configuration not stated) | 3.53
64 | Cc1cc2n(n1)CC(CNCc1ccnc(-n3ccnc3C)c1)CN2 (configuration not stated) | 0.264
65 | Cc1nc(C2CCCN2C(=O)c2cnns2)no1 (configuration not stated) | -8.38
66 | CCn1ccnc1CN1CCN(CCOc2cccc(C#N)c2)CC1 | -5.28
67 | Cc1cnn(CCNCc2nc(-c3ccccc3Cl)no2)c1 | 31.1
68 | Cc1cc(CN2CCN(C(=O)Nc3cccnc3)CC2)on1 | -7.67
69 | CC(NC(=O)N(C)Cc1ccsc1)c1ccc2c(c1)CCC(=O)N2 (configuration not stated) | -3.94
70 | Cc1cc(CN2CCN(C(=O)NC(C)c3cccnc3)CC2)on1 (configuration not stated) | -11.7
71 | CC(NC(=O)N1CCCN(Cc2cccs2)CC1)c1cccnc1 (configuration not stated) | -16.5
72 | Cc1nc(CNCc2c(C)nn(C)c2N2CCOCC2)cs1 | -15.5

Row | SMILES | cytotoxicity at 70.5 h [%]
73 | CC(NC(=O)N(C)Cc1ccsc1)c1ccc2c(c1)NC(=O)CO2 (configuration not stated) | -9.52
74 | Cc1noc(C)c1CNC(=O)N1CCN(Cc2cscn2)CC1 | -5.24
75 | CCOc1ccccc1C(CC(=O)Nc1ccccc1F)NC(C)=O (configuration not stated) | -6.84
76 | Cc1cc(CNCc2c(C)nn(C)c2N2CCOCC2)no1 | -4.07
77 | CNS(=O)(=O)c1ccc(C(=O)N2CCCC(n3cccn3)C2)cc1 (configuration not stated) | -8.29
78 | CCOC(=O)CN1CCC(C(=O)c2cc(F)ccc2F)CC1 | 34.9
79 | Cc1nc(C)n(CC2CCCN2Cc2nc(-c3cccs3)no2)n1 (configuration not stated) | -12.2
80 | Cc1cnn(CCNCc2nc(Cc3ccccc3)no2)c1 | -5.53
81 | Cc1cc(C)n(CC2CCCN2C(=O)CCCNc2ncccn2)n1 (configuration not stated) | -0.613
82 | COc1cc(CNC(=O)NCc2c(C)cc(C)[nH]c2=O)ccc1C | -8.93
83 | Cc1nc(C2CCCN(C(=O)Cn3ccccc3=O)C2)no1 (configuration not stated) | -9.54
84 | Cc1cc(C)n(CC2CCCN2C(=O)CCc2cscn2)n1 (configuration not stated) | -8.27
85 | Cc1nc(C)n(CC2CCCN2Cc2nc(C3CC3)no2)n1 (configuration not stated) | -5.43
86 | COCCN1CCN(Cc2noc(C3CC3)n2)CC1C (configuration not stated) | 12.5
87 | Cc1cccc(OCCC(=O)N2CCN(S(=O)(=O)N(C)C)CC2)c1C | 20.1
88 | O=C(NCCc1ccccn1)C1=NN(c2ccccc2)C(=O)CN1 | -6.71
89 | CC(C)c1noc(CCCC(=O)N2CCN(Cc3ccncc3)CC2)n1 | -17.6
90 | Cn1cc(NS(=O)(=O)c2ccc(OC(F)(F)F)cc2)ccc1=O | 18
91 | Cn1ncc2c(=O)[nH]c(CN3CCCC3c3cccs3)nc21 (configuration not stated) | -10.3
92 | OC(COCc1ccc(Cl)cc1)CN1CCC(c2ccn[nH]2)CC1 (configuration not stated) | -1.37
93 | COCCNc1ccc(CNC(=O)Nc2cn[nH]c2)cc1 | -16.6
94 | OC(COc1ccccc1)CN1CCC(c2ccn[nH]2)CC1 (configuration not stated) | -13.1
95 | CCn1cnnc1C1CCN(C(=O)c2ccc(Cl)s2)CC1 | -15
96 | CCn1cnnc1C1CCN(C(=O)c2cc3c(s2)CCC3)CC1 | -12.3

Row | SMILES | cytotoxicity at 70.5 h [%]
97 | Cc1cccc(OCCC(=O)N2CCCN(C(N)=O)CC2)c1C | 15.3
98 | Cc1noc(C)c1CN1CCN(Cc2nccn2C)C(C)C1 (configuration not stated) | -11.9
99 | Cc1cccc(OCCC(=O)N2CCCN(CC(N)=O)CC2)c1C | -12
100 | Cc1cnn(CCNCC(O)COc2ccc(C#N)cc2)c1 (configuration not stated) | -5.86
101 | CCc1nnc2n1CCN(C(=O)c1ccc(-c3ccco3)nc1C)C2 | 10
102 | CN(C)c1cc2c(nn1)CCN(C(=O)C1CCc3ccccc31)C2 (configuration not stated) | 13.5
103 | CN(C)c1cc2c(nn1)CCN(C(=O)C1Cc3ccccc3S1)C2 (configuration not stated) | -8.43
104 | COc1ccc(CNC(=O)N(Cc2ccc(F)cc2F)C2CC2)cn1 | 18.5
105 | COc1ccc2c(c1)CN(Cc1nc3ccsc3c(=O)[nH]1)CC2 | 5.83
106 | Cc1cnn(CCNCC(O)COc2ccc(Cl)cc2)c1 (configuration not stated) | 2.45
107 | CC1CN(Cc2noc(C3CC3)n2)CCN1Cc1nccn1C (configuration not stated) | 4.66
108 | CCc1noc(CN2CCCN(C(N)=O)CC2)n1 | -12
109 | CCc1nc(CN2CCCC(NCc3cnn(C(C)(C)C)c3)C2)no1 (configuration not stated) | -12.7
110 | CC(C)OCCCNC(=O)CN1CCC(N2CCN(C)C2=O)CC1 | -18.5
111 | COCCc1noc(CN(C)C(=O)c2cccc(N3CCCC3=O)c2)n1 | -17
112 | CCc1nc(CN2CCCC(NCc3ccc(C(N)=O)cc3)C2)no1 (configuration not stated) | -10.1
113 | Cc1cnc(CN2CCOC(Cn3nc(C)nc3C)C2)cn1 (configuration not stated) | 18.6
114 | O=C1CC(N(C(=O)c2ccc3[nH]c4c(c3c2)CCCC4)C2CC2)C(=O)N1 (configuration not stated) | 39.1
115 | Clc1snnc1CN1CCCC(Cn2cncn2)C1 (configuration not stated) | 14.5
116 | CN(Cc1ccsc1)C(=O)Nc1ccc(S(=O)(=O)N(C)C)cc1 | 3.55
117 | Cc1cnc(CN(C)C2CCN(CC(=O)Nc3nncs3)C2)o1 (configuration not stated) | 17.3
